Patent publication US20220151890A1, “EFFICIENT SUNSCREEN COMPOSITIONS WITH DIETHYLAMINO HYDROXYBENZOYL HEXYL BENZOATE AND BUTYL METHOXYDIBENZOYLMETHANE” (BASF SE, priority 2019, published 2022)
Counter-ions that a name gives are not always drawn.

How the values were obtained:
[1] = Recovery measurements on photo stability of BEMT (irradiated film on quartz plates, HPLC); type: physicochemical; conditions: presence of BMDBM in the composition
Description: Recovery measurements on photo stability of BEMT
The sunscreen and UV filter compositions as defined above are applied on roughened quartz plates (2 μl/cm^2). Plates are irradiated using Atlas CPS device at different duration times:
(§1) 0h (0 MED, no irradiation)
4h (20 MED). In total, four plates are prepared for each irradiation condition. After irradiation, each plate is rinsed off with tetrahydrofuran. The rinsing solution is further analyzed via HPLC to determine the recovery of BEMT.

[2] = description of the commercial UV filter; cited from earlier work
[3] = Recovery measurements on photo stability of BMDBM (irradiated film on quartz plates, HPLC); type: physicochemical; conditions: octocrylene free sunscreen composition
Description: Recovery measurements on photo stability of BMDBM
The sunscreen and UV filter compositions as defined above are applied on roughened quartz plates (2 μl/cm^2). Plates are irradiated using Atlas CPS device at different duration times (MED=Minimal Erythema Dose):
as §1
4h (20 MED). In total, four plates are prepared for each irradiation condition. After irradiation, each plate is rinsed off with tetrahydrofuran. The rinsing solution is further analyzed via HPLC to determine the recovery of BMDBM.

[4] = UV filter performance: wavelength of maximum absorbance of DHHB in emollient; type: physicochemical; conditions: DHHB dissolved in the listed emollient; UV/Vis 290 to 400nm, 1 cm cuvette
Description: (§2) The wavelength of maximum absorbance (,max) is an indicator to describe the performance of a UV filter molecule. It gives the wavelength at which the absorbance is at maximum. […] The UV transmission spectrum of each UV filter - emollient mixture was measured from 290 to 400nm using a UV/Vis spectrophotometer Perkin Elmer Lambda 25. Three stock solutions with a concentration of 1mM of UV filter were prepared for each mixture. Further, three dilutions of each stock solution were prepared resulting in nine measurements in total per UV filter-emollient solution. Then, all solutions were filled in UV transparent quartz cuvette of 1 cm optical path-length for UV Transmission measurements.

[5] = Measurement of interfacial tension (polarity index) of emollients; type: physicochemical; conditions: interfacial tension between emollient and water, Tensimat Densimat TD2000
Description: The term “polarity index” refers to non-polar or polar oils. Non-polar oils are mainly based on hydrocarbons and lack an electronegative element, such as oxygen. In contrast, polar oils contain heteroatoms that differ in electronegativity, which results in a dipole moment. However, such oils are still insoluble in water, i.e. hydrophob. The polarity index can be determined by measuring the interfacial tension between the respective oil and water.
Measurement of interfacial tension (polarity index)
Interfacial tension of the respective emollients as listed below was measured using a Tensimat Densimat TD2000.

[6] = UV filter performance: wavelength of maximum absorbance of BMDBM in emollient; type: physicochemical; conditions: BMDBM dissolved in the listed emollient; UV/Vis 290 to 400nm, 1 cm cuvette
Description: as §2

Row | SMILES | absorption maximum [2] [nm] | λmax values (DHHB) [4] [nm] | polarity index [5] [mN/m] | λmax values (BMDBM) [6] [nm] | further results
1 | COc1ccc(C(=O)CC(=O)c2ccc(C(C)(C)C)cc2)cc1 [BMDBM, 1-(4-(1,1-dimethylethyl)phenyl)-3-(4-methoxyphenyl)propane-1,3-dione] | 357 | – | – | – | effect on stability of BEMT, in words [1]: destabilizes the UV filter BEMT
2 | CCCCCCOC(=O)c1ccccc1C(=O)c1ccc(N(CC)CC)cc1O [DHHB, hexyl 2-[4-(diethylamino)-2-hydroxybenzoyl]benzoate] | 354 | – | – | – | effect on photo stability of BMDBM and BEMT, in words [3]: stabilizes the UV filter BMDBM and BEMT
3 | CCCCOC(=O)CCCCC(=O)OCCCC [dibutyl adipate] | – | 351 | – | – | –
4 | CCCCC(CC)COC(=O)c1ccc(Nc2nc(Nc3ccc(C(=O)NC(C)(C)C)cc3)nc(Nc3ccc(C(=O)OCC(CC)CCCC)cc3)n2)cc1 (stereo not drawn) [diethylhexyl-butamidotriazone, 4,4′-[[6-[[4-[[(1,1-dimethylethyl)amino]carbonyl]phenyl]amino]-1,3,5-triazin-2,4-diyl]diimino]bis-benzoic acid-bis(2-ethylhexyl)ester] | 310 | – | – | – | –
5 | CC(C)OC(=O)CCCCC(=O)OC(C)C [diisopropyl adipate] | – | 351 | 12 | 357 | –
6 | CC(C)OC(=O)CCCCCCCCC(=O)OC(C)C [diisopropyl sebacate] | – | 350 | – | 357 | –
7 | CCCCCCCCCCCCCC(=O)OC(C)C [isopropyl myristate] | – | – | – | 357 | –
8 | CCCCCCCCCCC(CO)CCCCCCCC (stereo not drawn) [octyldodecanol] | – | 349 | 25 | 357 | –
9 | O=C(OCCc1ccccc1)c1ccccc1 [phenethyl benzoate] | – | 355 | 19 | 362 | –
10 | CCCCOC(=O)CC(O)(CC(=O)OCCCC)C(=O)OCCCC [tributyl citrate] | – | 352 | 10 | 359 | –
11 | CCOC(=O)CC(O)(CC(=O)OCC)C(=O)OCC [triethyl citrate] | – | 353 | – | 359 | –
12 | c1ccc(-c2ccc(-c3nc(-c4ccc(-c5ccccc5)cc4)nc(-c4ccc(-c5ccccc5)cc4)n3)cc2)cc1 [tris-biphenyl triazine, 2,4,6-Tris(biphenyl-4-yl)-1,3,5-triazine] | 310 | – | – | – | –
